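Five compound concentrations were applied to cells in 96-well plates for 48 hours; endpoints were derived by simple linear interpolation of the resulting dose-response curve. GI50 marks 50% less growth.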 The source made the active and inactive calls. Cut-off read from the data, not from the text of the source: active = GI50 up to about 1.1 µM and inactive = higher.
Columns and labels:
Test in all cases: NCI tumour cell line growth inhibition, 48 h
[1] = tested on: HCC 2998
[2] = tested on: RPMI-8226
[3] = tested on: SNB-75
[4] = tested on: SK-MEL-5
[5] = tested on: MDA-MB-435
[6] = tested on: MOLT-4
[7] = tested on: NCI-H460
[8] = tested on: TK-10
[9] = tested on: OVCAR-4
[10] = tested on: SF-295
[11] = tested on: SNB-19
[12] = tested on: OVCAR-5
[13] = tested on: COLO 205
[14] = tested on: SF-539
[15] = tested on: UACC-62
[16] = tested on: RXF 393
[17] = tested on: A498
[18] = tested on: OVCAR-8
[19] = tested on: SF-268
[20] = tested on: SK-OV-3
[21] = tested on: T47D
[22] = tested on: HCT-116
[23] = tested on: K562
[24] = tested on: CAKI-1
[25] = tested on: A549
[26] = tested on: UACC-257
[27] = tested on: DU-145
[28] = tested on: BT-549
[29] = tested on: U-251
[30] = tested on: LOX IMVI
[31] = tested on: OVCAR-3
[32] = tested on: PC-3
[33] = tested on: Hs-578T
[34] = tested on: UO-31
[35] = tested on: NCI-H522
[36] = tested on: HT-29
[37] = tested on: SN12C
[38] = tested on: NCI-H226
[39] = tested on: KM12
[40] = tested on: SK-MEL-2
[41] = tested on: MDA-N
[42] = tested on: Malme-3M
[43] = tested on: SW-620
[44] = tested on: M14
[45] = tested on: NCI-H23
[46] = tested on: SR
[47] = tested on: ACHN
[48] = tested on: 786-0
[49] = tested on: CCRF-CEM
[50] = tested on: EKVX
[51] = tested on: IGROV-1
[52] = tested on: HL-60
[53] = tested on: HCT-15
[54] = tested on: MDA-MB-231
[55] = tested on: SK-MEL-28
[56] = tested on: NCI/ADR-RES
[57] = tested on: HOP-92
[58] = tested on: MCF7
[59] = tested on: HOP-62

SMILES: CC(Cl)(CCC(Cl)C(C)(C)Cl)C(=O)CBr (stereo not drawn)
- GI50 [1]: 17.1 µM (inactive)
- GI50 [2]: 2.25 µM (inactive)
- GI50 [3]: 13.6 µM (inactive)
- GI50 [4]: 8.49 µM (inactive)
- GI50 [5]: 14.2 µM (inactive)
- GI50 [6]: 1.21 µM (inactive)
- GI50 [7]: 15.9 µM (inactive)
- GI50 [8]: 11.8 µM (inactive)
- GI50 [9]: 2.73 µM (inactive)
- GI50 [10]: 21.4 µM (inactive)
- GI50 [11]: 30.3 µM (inactive)
- GI50 [12]: 17.5 µM (inactive)
- GI50 [13]: 6.27 µM (inactive)
- GI50 [14]: 16.1 µM (inactive)
- GI50 [15]: 10.1 µM (inactive)
- GI50 [16]: 2.88 µM (inactive)
- GI50 [17]: 17.2 µM (inactive)
- GI50 [18]: 10.5 µM (inactive)
- GI50 [19]: 16.7 µM (inactive)
- GI50 [20]: 13.4 µM (inactive)
- GI50 [21]: 17.9 µM (inactive)
- GI50 [22]: 7.05 µM (inactive)
- GI50 [23]: 2.88 µM (inactive)
- GI50 [24]: 14 µM (inactive)
- GI50 [25]: 19.5 µM (inactive)
- GI50 [26]: 12.4 µM (inactive)
- GI50 [27]: 19.5 µM (inactive)
- GI50 [28]: 14.2 µM (inactive)
- GI50 [29]: 15.6 µM (inactive)
- GI50 [30]: 2.06 µM (inactive)
- GI50 [31]: 15.4 µM (inactive)
- GI50 [32]: 14.6 µM (inactive)
- GI50 [33]: 17.4 µM (inactive)
- GI50 [34]: 9.31 µM (inactive)
- GI50 [35]: 1.95 µM (inactive)
- GI50 [36]: 13.1 µM (inactive)
- GI50 [37]: 14.7 µM (inactive)
- GI50 [38]: 16.8 µM (inactive)
- GI50 [39]: 15.6 µM (inactive)
- GI50 [40]: 14.7 µM (inactive)
- GI50 [41]: 8.2 µM (inactive)
- GI50 [42]: 12.3 µM (inactive)
- GI50 [43]: 2.18 µM (inactive)
- GI50 [44]: 9.79 µM (inactive)
- GI50 [45]: 18.3 µM (inactive)
- GI50 [46]: 1.8 µM (inactive)
- GI50 [47]: 8.04 µM (inactive)
- GI50 [48]: 7.94 µM (inactive)
- GI50 [49]: 0.877 µM (active)
- GI50 [50]: 16.4 µM (inactive)
- GI50 [51]: 13.3 µM (inactive)
- GI50 [52]: 2.24 µM (inactive)
- GI50 [53]: 8.28 µM
- GI50 [54]: 11.1 µM (inactive)
- GI50 [55]: 16.7 µM (inactive)
- GI50 [56]: 22.8 µM (inactive)
- GI50 [57]: 7.93 µM (inactive)
- GI50 [58]: 13 µM (inactive)
- GI50 [59]: 18.2 µM (inactive)

SMILES: O=C(Nn1cc(F)c(=O)[nH]c1=O)C12CC3CC(CC(C3)C1)C2
- GI50 [1]: 0.646 µM (active)
- GI50 [2]: 6.93 µM (inactive)
- GI50 [3]: 24.8 µM (inactive)
- GI50 [4]: 3.2 µM (inactive)
- GI50 [5]: 10 µM (inactive)
- GI50 [6]: 16 µM (inactive)
- GI50 [7]: 1.91 µM (inactive)
- GI50 [8]: 18.1 µM (inactive)
- GI50 [9]: 10.2 µM (inactive)
- GI50 [10]: 26.6 µM (inactive)
- GI50 [11]: 28.6 µM (inactive)
- GI50 [12]: 21.7 µM (inactive)
- GI50 [13]: 9.75 µM (inactive)
- GI50 [14]: 2.21 µM (inactive)
- GI50 [15]: 7.59 µM (inactive)
- GI50 [16]: 16.4 µM (inactive)
- GI50 [17]: 7.24 µM (inactive)
- GI50 [18]: 22.6 µM (inactive)
- GI50 [19]: 29.2 µM (inactive)
- GI50 [20]: 18.4 µM (inactive)
- GI50 [21]: 20.2 µM (inactive)
- GI50 [22]: 5.77 µM (inactive)
- GI50 [23]: 14.6 µM (inactive)
- GI50 [24]: 4.6 µM (inactive)
- GI50 [25]: 6.27 µM (inactive)
- GI50 [26]: 22 µM (inactive)
- GI50 [27]: 8.3 µM (inactive)
- GI50 [28]: 17.5 µM (inactive)
- GI50 [29]: 19.3 µM (inactive)
- GI50 [30]: 7.8 µM (inactive)
- GI50 [31]: 10.4 µM (inactive)
- GI50 [32]: 10.7 µM (inactive)
- GI50 [33]: 25.4 µM (inactive)
- GI50 [34]: 8.2 µM (inactive)
- GI50 [35]: 16.6 µM (inactive)
- GI50 [36]: 8.17 µM (inactive)
- GI50 [37]: 11.5 µM (inactive)
- GI50 [38]: 38.9 µM (inactive)
- GI50 [39]: 6.27 µM (inactive)
- GI50 [40]: 23.2 µM (inactive)
- GI50 [41]: 8.97 µM (inactive)
- GI50 [42]: 6.73 µM (inactive)
- GI50 [43]: 15.5 µM (inactive)
- GI50 [44]: 15.1 µM (inactive)
- GI50 [45]: 7.73 µM (inactive)
- GI50 [46]: 4.05 µM (inactive)
- GI50 [47]: 10.7 µM (inactive)
- GI50 [48]: 10.7 µM (inactive)
- GI50 [49]: 13 µM (inactive)
- GI50 [50]: 24 µM (inactive)
- GI50 [51]: 6.61 µM (inactive)
- GI50 [52]: 9.46 µM (inactive)
- GI50 [53]: 6.56 µM
- GI50 [54]: 12.7 µM (inactive)
- GI50 [55]: 12.9 µM (inactive)
- GI50 [56]: 24.2 µM (inactive)
- GI50 [57]: 8.69 µM (inactive)
- GI50 [58]: 5.22 µM (inactive)
- GI50 [59]: 12 µM (inactive)

From ChEMBL document CHEMBL1201862, “PubChem BioAssay data set” (2004)
